In one assay the test system is Escherichia coli (ATCC25922) or Staphylococcus aureus (ATCC25923). The assay is described as follows: Antibacterial MIC, microdilution method in Mueller-Hinton medium. The assay is classed as cell-based. To be noted: Escherichia coli, 18 h, MIC in E. coli or S. aureus; two-fold serial dilutions 64 to 0.5 μg/ml in duplicate; 18 hours of incubation at 35° C.; read-out: Potency (MIC). The procedure, abridged: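 Two-fold serial dilutions from 64 to 0.5 μg/ml, in duplicate, by broth microdilution in Mueller-Hinton medium (NCCLS M7-A5). MIC taken as the lowest concentration preventing visible growth after 18 h at 35° C.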
On to `Cl.NC1CCN(c2nc(Nc3ccc(Cl)c(Cl)c3)nc(N3C[C@H](N)C[C@H](N)C3)n2)CC1` [(3R,5S)-1-[4-(4-Amino-piperidin-1-yl)-6-(3,4-dichloro-phenylamino)-[1,3,5]triazin-2-yl]-piperidine-3,5-diamine], for which the MIC is below 64 µg/mL. `Cl.NC(=O)[C@H](CO)Nc1nc(N2C[C@H](N)C[C@H](N)C2)nc(N2C[C@H](N)C[C@H](N)C2)n1` [(S)-2-[4-((3R,5S)-3,5-Diamino-piperidin-1-yl)-6-((3S,5R)-3,5-diamino-piperidin-1-yl)-[1,3,5]triazin-2-ylamino]-3-hydroxy-propionamide]: the MIC is above 64 µg/mL. For `CC12CC[C@](C(=O)Nc3ccc(Nc4nc(N5C[C@H](N)C[C@H](N)C5)nc(N5C[C@H](N)C[C@H](N)C5)n4)cc3O)(OC1=O)C2(C)C` [(S)-4,7,7-Trimethyl-3-oxo-2-oxa-bicyclo[2.2.1]heptane-1-carboxylic acid {4-[4,6-bis-((3R,5S)-3,5-diamino-piperidin-1-yl)-[1,3,5]triazin-2-ylamino]-2-hydroxy-phenyl}-amide], the MIC is below 64 µg/mL.

Turning to `COc1ccc(NC(=O)c2ccc(Cl)cc2O)c(Nc2nc(N3CCCCC3)nc(N3CCCCC3)n2)c1.Cl` [BN-[2-(4-chloro-2-hydroxy-benzoylamino)-5-methoxy-phenyl]-4,6-Bis-((3R,5S)-3,5-diamino-piperidin-1-yl)-[1,3,5]triazine-2-amine], the MIC was above 64 µg/mL.

Take `CN(Cc1cccc2ccccc12)c1nc(N2CCCCC2)nc(N2CCCCC2)n1.Cl` [N,N-Methyl-naphthalen-1-ylmethyl-4,6-Bis-((3R,5S)-3,5-diamino-piperidin-1-yl)-[1,3,5]triazine-2-amine]: the MIC is above 64 µg/mL. On to `Cl.N[C@@H]1C[C@H](N)CN(c2nc(Nc3ccc4[nH]cnc4c3)nc(N3C[C@H](N)C[C@H](N)C3)n2)C1` [N-(1H-benzoimidazol-5-yl)-4,6-Bis-((3R,5S)-3,5-diamino-piperidin-1-yl)-[1,3,5]triazine-2-amine], for which the MIC is below 64 µg/mL. Consider `Cl.N[C@@H]1C[C@H](N)CN(c2nc(Nc3c[nH]c(=O)[nH]c3=O)nc(N3C[C@H](N)C[C@H](N)C3)n2)C1` [N-(2,4-dioxo-1,2,3,4-tetrahydro-pyrimidin-5-yl)-4,6-Bis-((3R,5S)-3,5-diamino-piperidin-1-yl)-[1,3,5]triazine-2-amine], for which the minimal inhibitory concentration (MIC) was below 64 µg/mL. On to `COc1ccc(OC)c(Nc2nc(N3C[C@H](N)C[C@H](N)C3)nc(N3C[C@H](N)C[C@H](N)C3)n2)c1` [N-(2,5-dimethoxy-phenyl)-4,6-Bis-((3R,5S)-3,5-diamino-piperidin-1-yl)-[1,3,5]triazine-2-amine], for which the MIC was above 64 µg/mL. On to `Cl.O=C(CC(=O)c1ccc(Nc2nc(N3CCCCC3)nc(N3CCCCC3)n2)cc1)Nc1ccccc1Cl` [N-(2-Chloro-phenyl)-3-{4-[4-(3S,5R)-3,5-diamino-piperidin-1-yl)-6-((R)-3-hydroxy-piperidin-1-yl)-[1,3,5]triazin-2-ylamino]-phenyl}-3-oxo-propionamide], for which the MIC is below 64 µg/mL. With `COc1nc(Nc2ccc(C(=O)CC(=O)Nc3ccccc3Cl)cc2)nc(N2C[C@H](N)C[C@H](N)C2)n1.Cl` [N-(2-Chloro-phenyl)-3-{4-[4-((3R,5S)-3,5-diamino-piperidin-1-yl)-6-methoxy-[1,3,5]triazin-2-ylamino]-phenyl}-3-oxo-propionamide], the MIC is below 16 µg/mL. As for `C=CCOC1OC(CO)C(O)C(O)C1Nc1nc(N2C[C@H](N)C[C@H](N)C2)nc(N2C[C@H](N)C[C@H](N)C2)n1.Cl` (stereo partly drawn) [N-(2-allyloxy-4,5-dihydroxy-6-hydroxymethyl-tetrahydro-pyran-3-yl)-4,6-Bis-((3R,5S)-3,5-diamino-piperidin-1-yl)-[1,3,5]triazine-2-amine], the MIC is above 64 µg/mL. Turning to `Cl.N[C@@H]1C[C@H](N)CN(c2nc(Nc3ccccc3F)nc(N3C[C@H](N)C[C@H](N)C3)n2)C1` [N-(2-fluoro-phenyl)-4,6-Bis-((3R,5S)-3,5-diamino-piperidin-1-yl)-[1,3,5]triazine-2-amine], the MIC was above 64 µg/mL. Turning to `N[C@@H]1C[C@H](N)CN(c2nc(Nc3ccccc3O)nc(N3C[C@H](N)C[C@H](N)C3)n2)C1` [N-(2-hydroxy-phenyl)-4,6-Bis-((3R,5S)-3,5-diamino-piperidin-1-yl)-[1,3,5]triazine-2-amine], the MIC is above 64 µg/mL. Take `N[C@@H]1C[C@H](N)CN(c2nc(Nc3ccccc3N3CCOCC3)nc(N3C[C@H](N)C[C@H](N)C3)n2)C1` [N-(2-morpholin-44-yl-phenyl)-4,6-Bis-((3R,5S)-3,5-diamino-piperidin-1-yl)-[1,3,5]triazine-2-amine]: the MIC is above 64 µg/mL.

For `O=C(Nc1ccccc1)c1ccccc1Nc1nc(N2CCCCC2)nc(N2CCCCC2)n1` [N-(2-phenylcarbamoyl-phenyl)-44,6-Bis-((3R,5S)-3,5-diamino-piperidin-1-yl)-[1,3,5]triazine-2-amine], the MIC is above 64 µg/mL.

As for `Cl.c1ccc(Nc2ccccc2Nc2nc(C3CCCCC3)nc(N3CCCCC3)n2)cc1` [N-(2-pohenylamino-phenyl)-4,6-Bis-((3R,5S)-3,5-diamino-piperidin-1-yl)-[1,3,5]triazine-2-amine], the MIC was above 64 µg/mL. Take `Cl.N[C@@H]1C[C@H](N)CN(c2nc(Nc3ccccc3-n3cccc3)nc(N3C[C@H](N)C[C@H](N)C3)n2)C1` [N-(2-pyrrol-1-yl-phenyl)-4,6-Bis-((3R,5S)-3,5-diamino-piperidin-1-yl)-[1,3,5]triazine-2-amine]: the MIC is below 64 µg/mL. Still for that read-out and setting: then `Cl.N[C@@H]1C[C@H](N)CN(c2nc(Nc3ccccc3S(N)(=O)=O)nc(N3C[C@H](N)C[C@H](N)C3)n2)C1` [N-(2-sulfamoyl-phenyl)-4,6-Bis-((3R,5S)-3,5-diamino-piperidin-1-yl)-[1,3,5]triazine-2-amine], with above 64 µg/mL; and `N[C@@H]1C[C@H](N)CN(c2nc(Nc3ccccc3S(N)(=O)=O)nc(N3C[C@H](N)C[C@H](N)C3)n2)C1` [N-(2-sulfamoyl-phenyl)-4,6-Bis-((3R,5S)-3,5-diamino-piperidin-1-yl)-[1,3,5]triazine-2-amine], with above 64 µg/mL. Consider `Cl.N[C@@H]1C[C@H](N)CN(c2nc(Nc3ccc(Cl)c(Cl)c3)nc(N3C[C@H](N)C[C@H](N)C3)n2)C1` [N-(3,4-dichloro-phenyl)-4,6-Bis-((3R,5S)-3,5-diamino-piperidin-1-yl)-[1,3,5]triazine-2-amine], for which the MIC is below 64 µg/mL. Consider `Cc1ccc(Nc2nc(N3C[C@H](N)C[C@H](N)C3)nc(N3C[C@H](N)C[C@H](N)C3)n2)cc1C.Cl` [N-(3,4-dimethyl-phenyl)-4,6-Bis-((3R,5S)-3,5-ddiamino-piperidin-1-yl)-[1,3,5]triazine-2-amine], for which the MIC was below 64 µg/mL.

The assay is the same for the next values; noted with them: Escherichia coli, 18 h, read-out: Potency (MIC).
As to `CN(c1nc(N2C[C@H](N)C[C@H](N)C2)nc(N2C[C@H](N)C[C@H](N)C2)n1)C1CCN(Cc2ccccc2)C1` (stereo partly drawn) [N-(1-Benzyl-pyrrolidin-3-yl)-N-methyl-4,6-Bis-((3R,5S)-3,5-diamino-piperidin-1-yl)-[1,3,5]triazine-2-amine], the MIC was below 64 µg/mL. As for `N[C@@H]1C[C@H](N)CN(c2nc(NCc3ccc(Cl)cc3Cl)nc(N3C[C@H](N)C[C@H](N)C3)n2)C1` [N-(2,4-dichloro-benzyl)-4,6-Bis-((3R,5S)-3,5-diamino-piperidin-1-yl)-[1,3,5]triazin-2-amine], the minimal inhibitory concentration (MIC) was above 64 µg/mL. Take `COc1cccc(OC)c1CNc1nc(N2C[C@H](N)C[C@H](N)C2)nc(N2C[C@H](N)C[C@H](N)C2)n1` [N-(2,6-dimethoxy-benzyl)-4,6-Bis-((3R,5S)-3,5-diamino-piperidin-1-yl)-[1,3,5]triazine-2-amine]: the MIC was above 64 µg/mL. Take `N[C@@H]1C[C@H](N)CN(c2nc(Nc3ccc(C(=O)CC(=O)Nc4ccccc4Cl)cc3)nc(N3C[C@@H](N)[C@@H](N)C3)n2)C1` [N-(2-Chloro-phenyl)-3-{4-[4-((3R,5S)-3,5-diamino-piperidin-1-yl)-6-((3R,4S)-3,4-diamino-pyrrolidin-1-yl)-[1,3,5]triazin-2-ylamino]-phenyl}-3-oxo-propionamide]: the minimal inhibitory concentration (MIC) was below 64 µg/mL. Regarding `N[C@@H]1C[C@H](N)CN(c2nc(Nc3ccc(C(=O)CC(=O)Nc4ccccc4Cl)cc3)nc(N3C[C@H](O)C[C@H](O)C3)n2)C1` [N-(2-Chloro-phenyl)-3-{4-[4-((3R,5S)-3,5-diamino-piperidin-1-yl)-6-((3R,5S)-3,5-dihydroxy-piperidin-1-yl)-[1,3,5]triazin-2-ylamino]-phenyl}-3-oxo-propionamide], the MIC was below 64 µg/mL.

As for `N[C@@H]1C[C@H](N)CN(c2nc(Nc3ccc(C(=O)CC(=O)Nc4ccccc4Cl)cc3)nc(N3C[C@@H](O)[C@@H](O)C3)n2)C1` [N-(2-Chloro-phenyl)-3-{4-[4-((3S,5R)-3,5-diamino-piperidin-1-yl)-6-((3R,4S)-3,4-dihydroxy-pyrrolidin-1-yl)-[1,3,5]triazin-2-ylamino]-phenyl}-3-oxo-propionamide], the MIC is below 64 µg/mL. With `COc1cc2c(cc1Nc1nc(N3C[C@H](N)C[C@H](N)C3)nc(N3C[C@H](N)C[C@H](N)C3)n1)oc1ccccc12` [N-(2-methoxy-dibenzofuran-3-yl)-4,6-Bis-((3R,5S)-3,5-diamino-piperidin-1-yl)-[1,3,5]triazine-2-amine], the MIC was below 64 µg/mL. `N[C@@H]1C[C@H](N)CN(c2nc(Nc3ccccc3N3CCCCC3)nc(N3C[C@H](N)C[C@H](N)C3)n2)C1` [N-(2-piperidin-1-yl-phenyl)-4,6-Bis-((3R,5S)-3,5-diamino-piperidin-1-yl)-[1,3,5]triazine-2-amine]: the minimum inhibitory concentration (MIC) was above 64 µg/mL. Take `Cc1cc(C)cc(Nc2nc(N3C[C@H](N)C[C@H](N)C3)nc(N3C[C@H](N)C[C@H](N)C3)n2)c1` [N-(3,5-dimethyl-phenyl)-4,6-Bis-((3R,5S)-3,5-diamino-piperidin-1-yl)-[1,3,5]triazine-2-amine]: the MIC is below 64 µg/mL.

Values taken from patent US7223759B2, “Antibacterial 3,5-diaminopiperidine-substituted aromatic and heteroaromatic compounds” (Anadys Pharmaceuticals, Inc., priority 2003, dated 2007).
